Test results: patent US20240279215A1 (Cytokinetics, Incorporated, priority 2022, published 2024)
Where a name gives a salt, the structure may show the parent alone.

Target: human NAMPT (Homo sapiens (Human), UniProt P43490)
Assay: NMN fluorescence biochemical assay (human recombinant NAMPT enzyme assay)
Outline: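 Activation of recombinant human NAMPT (6 nM) was tested with 2.5 mM ATP, 20 μM PRPP and 150 μM nicotinamide in 50 mM HEPES pH 7.2 for 60 min at ambient temperature. NMN was derivatized with acetophenone/KOH/formic acid and read by fluorescence (355/460 nm) after 40 min.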

human NAMPT, sequence (P43490 whole entry): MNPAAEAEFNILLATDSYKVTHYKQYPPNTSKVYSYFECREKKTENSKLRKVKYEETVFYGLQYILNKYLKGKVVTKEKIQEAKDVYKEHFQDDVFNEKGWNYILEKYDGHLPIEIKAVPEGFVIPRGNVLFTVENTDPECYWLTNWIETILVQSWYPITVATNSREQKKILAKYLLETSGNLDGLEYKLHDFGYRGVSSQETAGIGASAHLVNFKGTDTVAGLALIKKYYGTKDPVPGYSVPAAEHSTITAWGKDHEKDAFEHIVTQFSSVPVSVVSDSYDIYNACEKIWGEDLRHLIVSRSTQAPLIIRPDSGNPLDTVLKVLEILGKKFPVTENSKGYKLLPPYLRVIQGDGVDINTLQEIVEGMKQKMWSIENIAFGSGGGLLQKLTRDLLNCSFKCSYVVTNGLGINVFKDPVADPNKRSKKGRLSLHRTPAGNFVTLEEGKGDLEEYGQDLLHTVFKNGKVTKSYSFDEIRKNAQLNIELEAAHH

SMILES: CC1(C(=O)NCc2ccc(NC(=O)OCc3ccc(Cl)cc3)cc2)COC1 [Compound 179, (4-chlorophenyl)methyl N-(4-{[(3-methyloxetan-3-yl)formamido]methyl}phenyl)carbamate]
- AC1.4 Human: 1.50 µM
- EC50: 22.4 µM

SMILES: NC(=O)c1ccc(COC(=O)Nc2ccc(Cc3ccncc3)cc2)cc1 [Compound 14, 4-carbamoylbenzyl (4-(pyridin-4-ylmethyl)phenyl)carbamate]
- AC1.4 Human: 0.23 µM
- EC50: 10.7 µM

SMILES: Cc1ccc(C(=O)NCc2ccc(NC(=O)OCc3cnco3)cc2)cn1 [Compound 25, oxazol-5-ylmethyl (4-((6-methylnicotinamido)methyl)phenyl)carbamate]
- AC1.4 Human: 0.35 µM
- EC50: 7.8 µM

SMILES: O=C(Nc1ccc(C2CCN(CC(F)(F)F)CC2)cc1)OCc1cnco1 [Compound 88, 1,3-oxazol-5-ylmethyl N-{4-[1-(2,2,2-trifluoroethyl)piperidin-4-yl]phenyl}]
- AC1.4 Human: 0.69 µM
- EC50: 37.4 µM

SMILES: C[C@H](NC(=O)c1ccncc1F)c1ccc(NC(=O)OCc2ccc(Cl)cc2)cc1 [Compound 44, (4-chlorophenyl)methyl N-{4-[(1S)-1-[(3-fluoropyridin-4-yl)formamido]ethyl]phenyl}carbamate]
- AC1.4 Human: 0.45 µM
- EC50: 4.19 µM

SMILES: COc1cnn(C)c1C(=O)NCc1ccc(NC(=O)OCc2ccc(Cl)cc2)cc1 [Compound 135, (4-chlorophenyl)methyl N-(4-{[(4-methoxy-2-methylpyrazol-3-yl)formamido]methyl}phenyl)carbamate]
- AC1.4 Human: 1.07 µM
- EC50: 3.28 µM

SMILES: CS(=O)(=O)N1CCC2(CC(c3ccc(NC(=O)OCc4cnco4)cc3F)C2)C1 (single isomer, unassigned) [Compound 359]
- AC1.4 Human: 0.104 µM
- EC50: 3.5 µM

SMILES: COc1cc(C(=O)NCc2ccc(NC(=O)OCc3ccc(Cl)cc3)cc2)n(C)n1 [Compound 138, (4-chlorophenyl)methyl N-(4-{[(5-methoxy-2-methylpyrazol-3-yl)formamido]methyl}phenyl)carbamate]
- AC1.4 Human: 1.11 µM
- EC50: 8.41 µM

SMILES: O=C1CN(C2CCC2)[C@@H](c2ccc(NC(=O)OCc3ccc(Cl)cc3)cc2)CN1 [Compound 236, 4-chlorobenzyl (S)-(4-(1-cyclobutyl-5-oxopiperazin-2-yl)phenyl)carbamate]
- AC1.4 Human: 2.25 µM
- EC50: 50.6 µM

SMILES: Cc1ccc(C(=O)NCc2ccc(NC(=O)OCc3ccc(OC(F)F)cc3)cc2)cn1 [Compound 275, (4-(difluoro-13-methyl)phenyl)methyl (4-((6-methylnicotinamido)methyl)phenyl)carbamate]
- AC1.4 Human: 3.32 µM
- EC50: 12.6 µM

SMILES: C[C@@H]1CCCN(C(=O)Cc2ccc(NC(=O)OCc3ccc(Cl)cc3)cc2)C1 [Compound 256, (4-chlorophenyl)methyl N-(4-{2-[(3R)-3-methylpiperidin-1-yl]-2-oxoethyl}phenyl)carbamate]
- AC1.4 Human: 2.69 µM
- EC50: 10.5 µM

SMILES: O=C(Cc1ccc(NC(=O)OCc2ccc(Cl)cc2)cc1)NC1COC1 [Compound 339, 4-chlorobenzyl (4-(2-(oxetan-3-ylamino)-2-oxoethyl)phenyl)carbamate]
- AC1.4 Human: 10.65 µM
- EC50: 45.5 µM

SMILES: CC(=O)N1CCN(Cc2ccc(NC(=O)OCc3ccc(Cl)cc3)cc2)CC1 [Compound 191, (4-chlorophenyl)methyl N-{4-[(4-acetylpiperazin-1-yl)methyl]phenyl}carbamate]
- AC1.4 Human: 1.69 µM
- EC50: 21.9 µM

SMILES: C[C@H](NC(=O)c1ccc(F)cc1)c1ccc(NC(=O)OCc2cnco2)cc1 [Compound 39, 1,3-oxazol-5-ylmethyl N-{4-[(1S)-1-[(4-fluorophenyl)formamido]ethyl]phenyl}carbamate]
- AC1.4 Human: 0.43 µM
- EC50: 19.2 µM

SMILES: O=C(Nc1ccc(CCN2CCN(C3COC3)CC2)cc1)OCc1cnco1 [Compound 269, 1,3-oxazol-5-ylmethyl N-(4-{2-[4-(oxetan-3-yl)piperazin-1-yl]ethyl}phenyl)carbamate]
- AC1.4 Human: 3.13 µM
- EC50: 44.1 µM

SMILES: O=C(Nc1ccc(CNC(=O)c2ccncc2)cc1)OCc1ccc(Cl)cc1 [Compound 126, (4-chlorophenyl)methyl N-{4-[(pyridin-4-ylformamido)methyl]phenyl}carbamate]
- AC1.4 Human: 0.99 µM
- EC50: 4.06 µM

SMILES: O=C(Nc1ccc(CNC(=O)c2ncccc2F)cc1)OCc1ccc(Cl)cc1 [Compound 207, (4-chlorophenyl)methyl N-(4-{[(3-fluoropyridin-2-yl)formamido]methyl}phenyl)carbamate]
- AC1.4 Human: 1.85 µM
- EC50: 9.34 µM

SMILES: CN(Cc1ccc(NC(=O)OCc2ccc(Cl)cc2)cc1)C(=O)c1n[nH]cc1F [Compound 71, (4-chlorophenyl)methyl N-(4-{[1-(4-fluoro-1H-pyrazol-3-yl)-N-methylformamido]methyl}phenyl)carbamate]
- AC1.4 Human: 0.61 µM
- EC50: 2.51 µM

SMILES: CC(C)(C)OC(=O)N1CCC2(CC(Cc3ccc(NC(=O)OCc4cnco4)cc3F)C2)C1 (stereo not drawn) [Compound 377, tert-butyl 2-(2-fluoro-4-(((oxazol-5-ylmethoxy)carbonyl)amino)benzyl)-6-azaspiro[3.4]octane-6-carboxylate]
- AC1.4 Human: 1.08 µM
- EC50: 9.37 µM

SMILES: O=C(Nc1ccc(CCC2CCNCC2)cc1)OCc1cnco1 [Compound 252, oxazol-5-ylmethyl (4-(2-(piperidin-4-yl)ethyl)phenyl)carbamate hydrochloride]
- AC1.4 Human: 2.60 µM
- EC50: 26.2 µM

SMILES: COC(=O)N1CC2CCC(C1)C2Cc1ccc(NC(=O)OCc2cnco2)cc1 (stereo not drawn) [Compound 421, methyl 8-(4-(((oxazol-5-ylmethoxy)carbonyl)amino)benzyl)-3-azabicyclo[3.2.1]octane-3-carboxylate]
- AC1.4 Human: 0.13 µM
- EC50: 2.33 µM

SMILES: O=C(Nc1ccc(Cc2ccncc2)cc1)OCc1cnoc1 [Compound 333, isoxazol-4-ylmethyl (4-(pyridin-4-ylmethyl)phenyl)carbamate]
- AC1.4 Human: 9.58 µM
- EC50: 38.6 µM

SMILES: O=C(Nc1ccc(Cc2nccs2)cc1)OCc1ccc(Cl)cc1 [Compound 336, 4-chlorobenzyl (4-(thiazol-2-ylmethyl)phenyl)carbamate]
- AC1.4 Human: 10.07 µM
- EC50: 24.3 µM

SMILES: Cn1cc(COC(=O)Nc2ccc(Cc3ccncc3)cc2)cn1 [Compound 355, (1-methyl-1H-pyrazol-4-yl)methyl (4-(pyridin-4-ylmethyl)phenyl)carbamate]
- AC1.4 Human: 25.86 µM
- EC50: 4.96 µM

SMILES: CC(C)(O)CN1CCN(Cc2ccc(NC(=O)OCc3ccc(Cl)cc3)cc2)CC1 [Compound 177, 4-chlorobenzyl (4-((4-(2-hydroxy-2-methylpropyl)piperazin-1-yl)methyl)phenyl)carbamate]
- AC1.4 Human: 1.49 µM
- EC50: 38.3 µM

SMILES: O=C(Nc1ccc(CC2CC3CCC(C2)N3S(=O)(=O)C2CCC2)cc1)OCc1cnco1 (stereo not drawn) [Compound 394, oxazol-5-ylmethyl (4-((8-(cyclobutylsulfonyl)-8-azabicyclo[3.2.1]octan-3-yl)methyl)phenyl)carbamate]
- AC1.4 Human: 0.19 µM
- EC50: 4.62 µM

SMILES: O=C(Nc1ccc(CC(=O)N2CC[C@H](O)C2)cc1)OCc1ccc(Cl)cc1 [Compound 319, (4-chlorophenyl)methyl N-(4-{2-[(3S)-3-hydroxypyrrolidin-1-yl]-2-oxoethyl}phenyl)carbamate]
- AC1.4 Human: 6.50 µM
- EC50: 40.8 µM
